Measurements from patent US11795169B2, “MAP4K4 inhibitors” (IMPERIAL COLLEGE INNOVATIONS LIMITED, priority 2017, dated 2023).
Read-outs that look alike come from different tables or passages of the source. Blank lines part the entries; values can stand above or below the molecule they belong to.

Assays:
[1] = molecular target: human MAP4K4 kinase domain (Homo sapiens (Human), UniProt O95819); assay: MAP4K4 kinase activity, CisBio HTRF Transcreener ADP assay; assay type: biochemical
Excerpt: (§1) Compounds of the present invention were screened for their inhibitory activity against MAP4K4, versus selected off-target hits found with early members of this chemical series. MAP4K4 kinase activity was monitored using the CisBio HTRF Transcreener ADP assay, acompetitive immunoassay with a reproducible Z′>0.6. In the detection step, endogenous ADP and d2-labeled ADP compete for binding an anti-ADP monoclonal antibody labelled with Eu^3+ cryptate. A ratiometric fluorescent read-out is used at 665 and 620 nm. […] Assays were run in Greiner low volume plates with a final reaction volume of 10 μl. The MAP4K4 inhibition data are provided in Table 33 below for selected compounds of the present invention. The data has been categorised based on the IC50 value of the compound as “A”, “B” or “C”.

[2] = molecular target: MINK1/MAP4K6 (Homo sapiens (Human), UniProt Q8N4C8); assay: Kinase selectivity panel: MINK1/MAP4K6; assay type: biochemical
Excerpt: as §1
(§2) The data in Table 34 also provides the fold selectivity of the two compounds in favour of MAP4K4 over the tested kinase. The fold selectivity is indicated in parenthesis.

[3] = molecular target: TNIK/MAP4K7 (Homo sapiens (Human), UniProt Q9UKE5); assay: Kinase selectivity panel: TNIK/MAP4K7; assay type: biochemical
Excerpt: as §1, §2

[4] = molecular target: GCK/MAP4K2 (Homo sapiens (Human), UniProt Q12851); assay: Kinase selectivity panel: GCK/MAP4K2; assay type: biochemical
Excerpt: as §1, §2

[5] = molecular target: GLK/MAP4K3 (Homo sapiens (Human), UniProt Q8IVH8); assay: Kinase selectivity panel: GLK/MAP4K3; assay type: biochemical
Excerpt: as §1, §2

[6] = molecular target: KHS/MAP4K5 (Homo sapiens (Human), UniProt Q9Y4K4); assay: Kinase selectivity panel: KHS/MAP4K5; assay type: biochemical
Excerpt: as §1, §2

[7] = molecular target: ABL1 (Homo sapiens (Human), UniProt P00519); assay: Kinase selectivity panel: ABL1; assay type: biochemical
Excerpt: as §1, §2

[8] = molecular target: Aurora B (Homo sapiens (Human), UniProt Q96GD4); assay: Kinase selectivity panel: Aurora B; assay type: biochemical
Excerpt: as §1, §2

[9] = molecular target: FLT3 (Homo sapiens (Human), UniProt P36888); assay: Kinase selectivity panel: FLT3; assay type: biochemical
Excerpt: as §1, §2

[10] = molecular target: GSK3β (Homo sapiens (Human), UniProt P49841); assay: Kinase selectivity panel: GSK3β; assay type: biochemical
Excerpt: as §1, §2

[11] = molecular target: MLK1/MAP3K9 (Homo sapiens (Human), UniProt P80192); assay: Kinase selectivity panel: MLK1/MAP3K9; assay type: biochemical
Excerpt: as §1, §2

[12] = molecular target: MLK3/MAP3K11 (Homo sapiens (Human), UniProt Q16584); assay: Kinase selectivity panel: MLK3/MAP3K11; assay type: biochemical
Excerpt: as §1, §2

[13] = system: NUAK; assay: Kinase selectivity panel: NUAK; assay type: biochemical
Method: (§3) In the detection step, endogenous ADP and d2-labeled ADP compete for binding an anti-ADP monoclonal antibody labelled with Eu^3+ cryptate. […] Assays were run in Greiner low volume plates with a final reaction volume of 10 μl.
(§4) The fold selectivity is indicated in parenthesis.

[14] = system: VEGFR; assay: Kinase selectivity panel: VEGFR; assay type: biochemical
Method: as §3, §4

[15] = system: CorV.4U cardiomyocytes (hiPSC-CMs); assay: Protection of CorV.4U cardiomyocytes from H2O2 or menadione (luminescent cell viability assay, human cardiac troponin assay); assay type: cell-based
Excerpt: To substantiate the hypothesis that pharmacological inhibition of MAP4K4 would confer resistance to cell death in human cardiomyocytes, cytoprotection was next assessed using hiPSC-CMs.

[16] = system: H9c2 cardiomyocytes; assay: Protection of H9c2 cardiomyocytes; assay type: cell-based
[17] = system: CorV.4U hiPSC-CMs; assay: Mitochondrial function in CorV.4U hiPSC-CMs after acute oxidative stress (menadione); assay type: cell-based, human; conditions: 10 μM compound, 15 μM menadione for 2 h
Method: Key aspects of mitochondrial function were monitored in CorV.4U hiPSC-CMs after acute oxidative stress (15 μM menadione for 2 h), with or without Ex-58 (FIG. 8A).

[18] = system: hiPSC-CMs; assay: Calcium cycling in hiPSC-CMs (Fura-2) under menadione; assay type: cell-based, human
Method: Calcium cycling, a hallmark of the cardiac phenotype, likewise is susceptible to redox- and phosphorylation-dependent abnormalities. To determine whether MAP4K4 inhibition might preserve calcium homeostasis, hiPSC-CMs were assessed using the intracellular calcium indicator, Fura-2 (FIG. 8B). […] At 50 μM menadione, spontaneous calcium oscillations persisted in only 8 of 24 cultures (33.3%), versus 21 of 24 receiving 10 μM Ex-58 (87.5%; P<0.001).

[19] = system: mice undergoing experimental myocardial infarction; assay: Experimental myocardial infarction in mice (infarct size, TUNEL staining); assay type: in vivo; conditions: for reduction in infarct size as a proportion of the area at ischemic risk: 50 mg kg−1 twice by gavage
Method: To test if target validation and compound development in hiPSC-CMs might predict success in a whole-animal context, mice undergoing experimental myocardial infarction were treated with Ex-58 or the vehicle control (FIG. 9). […] Treatment was begun either 20 min prior to ischemia (FIG. 9D), or 1 h after reperfusion injury (FIG. 9E, F), the latter having greater relevance to potential clinical benefits.

[20] = Plasma protein binding (PPB); assay type: in vitro ADME; conditions: plasma
[21] = Resistance to degradation in hepatocyte microsomes (Heps); assay type: in vitro ADME
[22] = system: Cyp; assay: Cyp Inhibition; assay type: in vitro ADME
[23] = mouse, in vivo; for AUCinf: po, 50 mg/kg
[24] = Pharmacokinetics in mice (IV and oral)
[25] = system: iCell cardiomyocytes (hiPSC-CMs); assay: Human cardiac muscle cell death in iCell cardiomyocytes (DRAQ7 uptake); assay type: cell-based; conditions: 1.25 μM, lowest concentration tested
Excerpt: First, the expression of cardiomyocyte-specific markers and of MAP4K4 protein was validated (FIG. 5A, B). Two of three shRNAs directed against human MAP4K4 reduced expression >60%, with no extraneous effect on M/NK/MAP4K6 and TN/K/MAP4K7, the most closely related genes (FIG. 5C). Cell death was quantified by high-content analysis (FIG. 5D) as the loss of membrane integrity (DRAQ7 uptake) in successfully transduced (GFP^+) hiPSC-CMs (Myh6-RFP^+). Each of the two potent shRNAs conferred protection against H2O2: myocyte loss was reduced up to 50% (FIG. 5E).
To substantiate the hypothesis that pharmacological inhibition of MAP4K4 would confer resistance to cell death in human cardiomyocytes, cytoprotection was next assessed using hiPSC-CMs. […] Human cardiac muscle cell protection was substantiated in a second, independent line, CorV.4U cardiomyocytes, which are more highly enriched for ventricular myocytes.

[26] = ATP at Km (10 μM), 0.5 nM kinase domain, 2 h, read-out: MAP4K4

Sequence of Aurora B (Q96GD4 whole entry): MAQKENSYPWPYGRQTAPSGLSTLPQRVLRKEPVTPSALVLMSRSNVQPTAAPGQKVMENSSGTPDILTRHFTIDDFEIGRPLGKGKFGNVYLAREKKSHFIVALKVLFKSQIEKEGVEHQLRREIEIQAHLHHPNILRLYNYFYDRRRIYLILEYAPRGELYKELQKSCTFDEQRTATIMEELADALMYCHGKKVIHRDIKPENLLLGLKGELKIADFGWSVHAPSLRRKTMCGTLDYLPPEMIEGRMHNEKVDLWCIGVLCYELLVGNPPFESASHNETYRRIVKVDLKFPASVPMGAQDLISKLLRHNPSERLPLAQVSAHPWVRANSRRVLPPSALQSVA
Sequence of ABL1 (P00519 whole entry, species assumed): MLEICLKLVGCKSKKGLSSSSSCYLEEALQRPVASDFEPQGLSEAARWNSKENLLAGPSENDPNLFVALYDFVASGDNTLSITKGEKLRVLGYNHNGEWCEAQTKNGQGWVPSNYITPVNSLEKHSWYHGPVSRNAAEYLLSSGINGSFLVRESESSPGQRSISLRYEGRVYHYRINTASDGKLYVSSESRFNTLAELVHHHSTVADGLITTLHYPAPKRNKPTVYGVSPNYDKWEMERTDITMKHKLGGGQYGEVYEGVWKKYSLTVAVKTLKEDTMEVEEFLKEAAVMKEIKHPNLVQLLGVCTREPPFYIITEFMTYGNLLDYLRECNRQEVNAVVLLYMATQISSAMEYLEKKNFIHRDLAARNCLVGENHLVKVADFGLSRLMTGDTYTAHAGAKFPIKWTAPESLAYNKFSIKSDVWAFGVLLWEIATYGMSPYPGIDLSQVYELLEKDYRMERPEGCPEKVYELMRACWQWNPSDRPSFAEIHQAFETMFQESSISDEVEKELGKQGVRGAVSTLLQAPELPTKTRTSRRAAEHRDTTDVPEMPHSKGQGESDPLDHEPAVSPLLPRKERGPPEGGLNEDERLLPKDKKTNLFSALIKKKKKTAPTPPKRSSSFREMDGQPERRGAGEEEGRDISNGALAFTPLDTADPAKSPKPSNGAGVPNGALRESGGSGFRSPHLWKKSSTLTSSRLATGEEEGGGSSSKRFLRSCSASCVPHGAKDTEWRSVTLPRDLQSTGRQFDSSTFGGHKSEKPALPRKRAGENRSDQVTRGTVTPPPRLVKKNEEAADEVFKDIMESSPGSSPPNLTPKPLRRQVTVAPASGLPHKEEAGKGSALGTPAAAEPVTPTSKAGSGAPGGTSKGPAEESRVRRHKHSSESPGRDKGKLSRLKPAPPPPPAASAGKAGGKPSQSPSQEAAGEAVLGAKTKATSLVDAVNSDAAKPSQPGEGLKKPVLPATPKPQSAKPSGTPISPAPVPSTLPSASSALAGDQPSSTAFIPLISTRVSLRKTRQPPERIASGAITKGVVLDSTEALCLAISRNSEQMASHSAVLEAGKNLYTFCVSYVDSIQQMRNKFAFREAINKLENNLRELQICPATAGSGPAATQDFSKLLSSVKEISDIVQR
Sequence of KHS/MAP4K5 (Q9Y4K4 whole entry): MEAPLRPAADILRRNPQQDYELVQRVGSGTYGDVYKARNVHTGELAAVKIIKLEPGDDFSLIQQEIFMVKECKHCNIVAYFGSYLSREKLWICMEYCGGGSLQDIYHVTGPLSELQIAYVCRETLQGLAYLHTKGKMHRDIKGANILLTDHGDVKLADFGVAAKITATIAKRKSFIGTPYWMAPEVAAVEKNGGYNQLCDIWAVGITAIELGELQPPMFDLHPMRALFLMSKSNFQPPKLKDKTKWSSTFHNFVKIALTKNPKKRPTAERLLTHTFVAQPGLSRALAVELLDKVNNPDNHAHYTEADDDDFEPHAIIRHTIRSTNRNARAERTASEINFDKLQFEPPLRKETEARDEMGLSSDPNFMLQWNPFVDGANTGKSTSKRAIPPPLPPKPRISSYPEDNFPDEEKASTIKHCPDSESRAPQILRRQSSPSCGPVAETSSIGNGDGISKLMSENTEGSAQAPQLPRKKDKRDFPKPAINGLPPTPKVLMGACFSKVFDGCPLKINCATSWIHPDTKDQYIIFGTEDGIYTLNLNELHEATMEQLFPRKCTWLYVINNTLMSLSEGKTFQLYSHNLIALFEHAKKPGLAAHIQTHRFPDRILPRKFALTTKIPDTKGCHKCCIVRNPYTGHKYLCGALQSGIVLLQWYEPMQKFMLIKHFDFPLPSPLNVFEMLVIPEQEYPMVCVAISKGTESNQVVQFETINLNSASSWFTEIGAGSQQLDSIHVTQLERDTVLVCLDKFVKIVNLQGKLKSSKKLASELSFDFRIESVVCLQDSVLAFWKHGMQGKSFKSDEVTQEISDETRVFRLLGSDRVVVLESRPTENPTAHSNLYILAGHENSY
Sequence of GCK/MAP4K2 (Q12851 whole entry): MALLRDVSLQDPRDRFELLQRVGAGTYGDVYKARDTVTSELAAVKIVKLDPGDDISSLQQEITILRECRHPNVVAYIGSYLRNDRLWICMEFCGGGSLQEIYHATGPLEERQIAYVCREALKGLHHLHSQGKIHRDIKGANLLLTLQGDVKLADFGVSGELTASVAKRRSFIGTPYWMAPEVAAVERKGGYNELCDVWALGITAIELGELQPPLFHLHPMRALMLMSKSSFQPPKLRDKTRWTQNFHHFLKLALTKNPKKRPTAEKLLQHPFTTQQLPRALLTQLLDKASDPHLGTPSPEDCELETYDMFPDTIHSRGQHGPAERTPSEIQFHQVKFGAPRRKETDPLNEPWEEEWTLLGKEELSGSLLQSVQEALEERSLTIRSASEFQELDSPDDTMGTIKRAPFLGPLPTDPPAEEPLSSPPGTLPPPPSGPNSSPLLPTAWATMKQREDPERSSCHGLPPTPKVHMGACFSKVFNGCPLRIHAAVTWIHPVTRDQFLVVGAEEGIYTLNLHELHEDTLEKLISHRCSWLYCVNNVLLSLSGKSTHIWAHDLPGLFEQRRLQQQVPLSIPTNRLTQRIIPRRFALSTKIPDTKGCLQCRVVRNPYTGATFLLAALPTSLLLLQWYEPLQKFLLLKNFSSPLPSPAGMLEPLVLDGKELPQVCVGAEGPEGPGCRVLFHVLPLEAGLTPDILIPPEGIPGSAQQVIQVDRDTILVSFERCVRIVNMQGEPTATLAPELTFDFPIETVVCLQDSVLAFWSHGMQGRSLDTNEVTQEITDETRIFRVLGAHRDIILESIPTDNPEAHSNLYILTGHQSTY
Sequence of MLK1/MAP3K9 (P80192 whole entry): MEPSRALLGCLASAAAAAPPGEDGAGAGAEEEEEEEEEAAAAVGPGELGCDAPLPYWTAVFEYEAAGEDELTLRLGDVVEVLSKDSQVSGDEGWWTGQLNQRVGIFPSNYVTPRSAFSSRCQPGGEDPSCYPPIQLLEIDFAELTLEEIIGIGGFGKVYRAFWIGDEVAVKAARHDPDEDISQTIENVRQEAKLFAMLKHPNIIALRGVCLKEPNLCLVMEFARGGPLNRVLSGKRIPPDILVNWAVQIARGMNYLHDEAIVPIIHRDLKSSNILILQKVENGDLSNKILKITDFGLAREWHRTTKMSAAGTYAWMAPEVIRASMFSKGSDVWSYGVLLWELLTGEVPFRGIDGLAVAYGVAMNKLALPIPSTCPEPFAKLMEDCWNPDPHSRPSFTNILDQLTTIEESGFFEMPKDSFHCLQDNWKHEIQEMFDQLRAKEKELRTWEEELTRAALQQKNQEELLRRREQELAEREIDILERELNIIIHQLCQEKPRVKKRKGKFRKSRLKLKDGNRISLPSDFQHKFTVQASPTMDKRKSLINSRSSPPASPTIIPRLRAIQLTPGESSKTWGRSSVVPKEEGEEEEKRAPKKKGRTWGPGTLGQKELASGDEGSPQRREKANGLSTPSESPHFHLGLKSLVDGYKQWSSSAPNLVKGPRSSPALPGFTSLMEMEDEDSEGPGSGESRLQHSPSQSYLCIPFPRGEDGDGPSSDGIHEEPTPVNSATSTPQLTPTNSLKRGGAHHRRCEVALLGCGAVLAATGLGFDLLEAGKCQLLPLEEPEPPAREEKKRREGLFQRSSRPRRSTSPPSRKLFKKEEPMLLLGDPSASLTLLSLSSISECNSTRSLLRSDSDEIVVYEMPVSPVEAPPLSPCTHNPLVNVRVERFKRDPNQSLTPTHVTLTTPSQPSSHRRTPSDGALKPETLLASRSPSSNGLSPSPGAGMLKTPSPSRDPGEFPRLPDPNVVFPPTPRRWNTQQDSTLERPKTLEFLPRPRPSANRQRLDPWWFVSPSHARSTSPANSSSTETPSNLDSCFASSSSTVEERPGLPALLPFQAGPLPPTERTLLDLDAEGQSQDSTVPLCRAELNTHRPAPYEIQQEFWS
Sequence of GSK3β (P49841 whole entry, species assumed): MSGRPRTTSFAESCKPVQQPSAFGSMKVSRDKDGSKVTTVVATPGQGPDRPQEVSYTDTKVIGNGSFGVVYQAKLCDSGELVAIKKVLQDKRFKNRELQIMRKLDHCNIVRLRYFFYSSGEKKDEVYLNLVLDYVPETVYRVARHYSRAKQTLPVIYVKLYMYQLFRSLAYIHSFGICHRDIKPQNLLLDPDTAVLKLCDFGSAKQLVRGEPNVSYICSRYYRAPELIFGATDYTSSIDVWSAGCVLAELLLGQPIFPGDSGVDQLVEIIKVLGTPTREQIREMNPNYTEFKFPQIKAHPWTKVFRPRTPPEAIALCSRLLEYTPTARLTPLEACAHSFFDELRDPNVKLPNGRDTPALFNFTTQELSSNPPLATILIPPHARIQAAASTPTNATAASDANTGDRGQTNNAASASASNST
Sequence of human MAP4K4 kinase domain (O95819 25-289): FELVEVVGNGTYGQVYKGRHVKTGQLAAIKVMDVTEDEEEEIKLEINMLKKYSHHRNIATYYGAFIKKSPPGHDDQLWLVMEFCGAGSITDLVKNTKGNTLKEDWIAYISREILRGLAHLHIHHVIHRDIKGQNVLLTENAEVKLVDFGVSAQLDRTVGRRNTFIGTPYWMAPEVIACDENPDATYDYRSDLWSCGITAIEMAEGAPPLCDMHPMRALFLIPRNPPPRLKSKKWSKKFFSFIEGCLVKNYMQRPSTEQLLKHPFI

Structure (SMILES): COCCOc1ccc(-c2cn(-c3ccccc3)c3nc[nH]c(=O)c23)cc1 [Ex-58, 5-[4-(2-Methoxy-ethoxy)-phenyl]-7-phenyl-3,7-dihydro-pyrrolo[2,3-d]pyrimidin-4-one]
- greater potency than F1386-0303 [1]: 10 fold
- pIC50 MAP4K4 [1]: 8.55
- IC50 [1, 26]: ≤ 0.1 µM
- selectivity for MAP4K4 (in words) ([1]; compared to F1386-303, 13 other protein kinases): highly selective
- IC50 ([1]; read-out: MAP4K4, IC50): 0.003 µM
- pIC50 MINK1/MAP4K6 [2]: 8.18
- pIC50 TNIK/MAP4K7 [3]: 7.96
- fold selectivity for MAP4K4 over GCK/MAP4K2 [4]: (112) fold
- pIC50 GCK/MAP4K2 [4]: 6.50
- fold selectivity for MAP4K4 over GLK/MAP4K3 [5]: (3981) fold
- pIC50 GLK/MAP4K3 [5]: 4.95
- fold selectivity for MAP4K4 over KHS/MAP4K5 [6]: (153) fold
- pIC50 KHS/MAP4K5 [6]: 6.36
- fold selectivity for MAP4K4 over ABL1 [7]: (560) fold
- pIC50 ABL1 [7]: 5.80
- fold selectivity for MAP4K4 over Aurora B [8]: (560) fold
- pIC50 Aurora B [8]: 5.49
- fold selectivity for MAP4K4 over FLT3 [9]: (1148) fold
- pIC50 FLT3 [9]: 5.31
- fold selectivity for MAP4K4 over GSK3β [10]: (7762) fold
- pIC50 GSK3β [10]: 4.66
- fold selectivity for MAP4K4 over MLK1/MAP3K9 [11]: (23) fold
- pIC50 MLK1/MAP3K9 [11]: 7.19
- fold selectivity for MAP4K4 over MLK3/MAP3K11 [12]: (36) fold
- pIC50 MLK3/MAP3K11 [12]: 6.99
- fold selectivity for MAP4K4 over NUAK [13]: (47) fold
- pIC50 NUAK [13]: 6.88
- fold selectivity for MAP4K4 over VEGFR [14]: (675) fold
- pIC50 VEGFR [14]: 5.72
- protection of human cardiomyocytes (in words) ([15]; CorV.4U cells, H2O2 and menadione, both viability assays): Protection of human cardiomyocytes was substantiated
- Protection in human iPSC-derived ventricular cardiomyocytes, H202, efficacy relative to Ex-58 ([15]; H2O2 as death trigger, relative to Ex-58): (1)
- EC50 ([15]; Homo sapiens, Cardiomyocyte, H2O2 as death trigger, read-out: Protection in human iPSC-derived ventricular cardiomyocytes, EC50 H202): 0.403 µM
- Protection in H9c2 cardiomyocytes, efficacy relative to Ex-58 ([16]; H9c2 cardiomyocytes, relative to Ex-58): (1)
- EC50 ([16]; Rattus norvegicus, H9c2): 0.35 µM
- extracellular acidification rate (glycolytic function) [17]: largely rescued
- cultures with persisting spontaneous calcium oscillations ([18]; 10 μM compound, 50 μM menadione, 21 of 24 cultures): 87.5%
- adverse effect on functional parameters ([18]; hiPSC-CMs, mitochondrial function and calcium cycling): no adverse effect
- reduction in infarct size as a proportion of the area at ischemic risk ([19]; begun 20 min prior to ischemia): more than 50%
- reduction in infarct size as a proportion of the area at ischemic risk ([19]; begun 1 h after reperfusion injury): > 60%
- In vivo efficacy (infarct size/area at risk), reduction ([19]; mice, experimental myocardial infarction): 65% reduction
- suppression of cardiomyocyte apoptosis (TUNEL) in the jeopardized adjacent myocardium ([19]; post-injury study): 52%
- suppression of cardiomyocyte apoptosis (TUNEL) within the infarct ([19]; post-injury study): 39%
- fraction unbound ([20]; human, read-out: Human PPB % (converted)): 0.01
- fraction unbound ([20]; mouse, read-out: Mouse PPB % (converted)): 0.02
- Human Heps ([21]; human): ≤10
- Mouse Heps ([21]; mouse): 85
- Pig Heps ([21]; pig): 8
- Rat Heps ([21]; rat): 10
- Cyp Inhibition [22]: >10 µM
- AUCinf [23]: 63733
- improvement of free plasma concentration over the earlier compound ([24]; 50 mg kg-1 oral dose, versus F1386-0303): > 80 fold
- concentration at 1 h ([24]; mouse, plasma, po, 50 mg kg-1): 334 nM
- concentration at 10 h ([24]; mouse, plasma, po, 50 mg kg-1): 8 nM

- IC50 [1, 26]: ≤ 0.1 µM
- IC50 ([1]; read-out: pIC50 MAP4K4 (converted)): 0.00158 µM
- IC50 ([2]; read-out: pIC50 MINK1/MAP4K6 (converted)): 0.00794 µM
- IC50 ([3]; read-out: pIC50 TNIK/MAP4K7 (converted)): 0.00501 µM
- fold selectivity for MAP4K4 over GCK/MAP4K2 [4]: (316) fold
- IC50 ([4]; read-out: pIC50 GCK/MAP4K2 (converted)): 0.316 µM
- fold selectivity for MAP4K4 over GLK/MAP4K3 [5]: (31622) fold
- IC50 ([5]; read-out: pIC50 GLK/MAP4K3 (converted)): 31.6 µM
- fold selectivity for MAP4K4 over KHS/MAP4K5 [6]: (316) fold
- IC50 ([6]; read-out: pIC50 KHS/MAP4K5 (converted)): 1 µM
- fold selectivity for MAP4K4 over ABL1 [7]: (794) fold
- IC50 ([7]; read-out: pIC50 ABL1 (converted)): 0.794 µM
- fold selectivity for MAP4K4 over Aurora B [8]: (31622) fold
- IC50 ([8]; read-out: pIC50 Aurora B (converted)): 31.6 µM
- fold selectivity for MAP4K4 over FLT3 [9]: (31622) fold
- IC50 ([9]; read-out: pIC50 FLT3 (converted)): 31.6 µM
- fold selectivity for MAP4K4 over GSK3β [10]: (31622) fold
- IC50 ([10]; read-out: pIC50 GSK3β (converted)): 31.6 µM
- fold selectivity for MAP4K4 over MLK1/MAP3K9 [11]: (63) fold
- IC50 ([11]; read-out: pIC50 MLK1/MAP3K9 (converted)): 0.0631 µM
- fold selectivity for MAP4K4 over MLK3/MAP3K11 [12]: (63) fold
- IC50 ([12]; read-out: pIC50 MLK3/MAP3K11 (converted)): 0.0631 µM
- fold selectivity for MAP4K4 over NUAK [13]: (63) fold
- pIC50 NUAK [13]: 7.2
- fold selectivity for MAP4K4 over VEGFR [14]: (501) fold
- pIC50 VEGFR [14]: 6.3
Structure (SMILES): O=C1NCCN1c1ccc(-c2cn(-c3ccccc3)c3nc[nH]c(=O)c23)cc1 [Ex-61]

Structure (SMILES): Oc1ncnc2c1c(-c1ccccc1)cn2-c1ccccc1 [F1386-0303, 5,7-diphenyl-7H-pyrrolo[2,3-d]pyrimidin-4-ol, reference compound]
- pIC50 MAP4K4 [1]: 7.46
- IC50 ([1]; read-out: IC50 (MAP4K4)): 0.034 µM
- pIC50 ABL1 [7]: 4.52
- pIC50 Aurora B [8]: 4.88
- pIC50 FLT3 [9]: 5.66
- pIC50 GSK3β [10]: 4.57
- reduction of human cardiac muscle cell death [25]: 50%
- protection from H2O2 or menadione ([15]; 10 μM, luminescent cell viability assay, human cardiac troponin assay): virtually complete
- clearance and oral exposure in mice (in words) [23]: rapidly cleared and accumulates only to low levels
- AUCinf [23]: 2162
